Reference: article doi:10.1101/2023.12.04.569845, “Identification of 4-(6-((2-methoxyphenyl)amino)pyrazin-2-yl)benzoic acids as CSNK2A inhibitors with antiviral activity and improved selectivity over PIM3” (bioRxiv, 2023)
Where two headings read alike, the source gives them in different places.

Key:
Assay in all cases: biochemical
Design in all cases: Thermal shift (DSF, SYPRO Orange) Tm shift of recombinant kinase domains at 10 uM compound
BMPR2 = biological target: T1, BMPR2 (Homo sapiens, UniProt Q13873)
T1 sequence (Q13873 1-1038): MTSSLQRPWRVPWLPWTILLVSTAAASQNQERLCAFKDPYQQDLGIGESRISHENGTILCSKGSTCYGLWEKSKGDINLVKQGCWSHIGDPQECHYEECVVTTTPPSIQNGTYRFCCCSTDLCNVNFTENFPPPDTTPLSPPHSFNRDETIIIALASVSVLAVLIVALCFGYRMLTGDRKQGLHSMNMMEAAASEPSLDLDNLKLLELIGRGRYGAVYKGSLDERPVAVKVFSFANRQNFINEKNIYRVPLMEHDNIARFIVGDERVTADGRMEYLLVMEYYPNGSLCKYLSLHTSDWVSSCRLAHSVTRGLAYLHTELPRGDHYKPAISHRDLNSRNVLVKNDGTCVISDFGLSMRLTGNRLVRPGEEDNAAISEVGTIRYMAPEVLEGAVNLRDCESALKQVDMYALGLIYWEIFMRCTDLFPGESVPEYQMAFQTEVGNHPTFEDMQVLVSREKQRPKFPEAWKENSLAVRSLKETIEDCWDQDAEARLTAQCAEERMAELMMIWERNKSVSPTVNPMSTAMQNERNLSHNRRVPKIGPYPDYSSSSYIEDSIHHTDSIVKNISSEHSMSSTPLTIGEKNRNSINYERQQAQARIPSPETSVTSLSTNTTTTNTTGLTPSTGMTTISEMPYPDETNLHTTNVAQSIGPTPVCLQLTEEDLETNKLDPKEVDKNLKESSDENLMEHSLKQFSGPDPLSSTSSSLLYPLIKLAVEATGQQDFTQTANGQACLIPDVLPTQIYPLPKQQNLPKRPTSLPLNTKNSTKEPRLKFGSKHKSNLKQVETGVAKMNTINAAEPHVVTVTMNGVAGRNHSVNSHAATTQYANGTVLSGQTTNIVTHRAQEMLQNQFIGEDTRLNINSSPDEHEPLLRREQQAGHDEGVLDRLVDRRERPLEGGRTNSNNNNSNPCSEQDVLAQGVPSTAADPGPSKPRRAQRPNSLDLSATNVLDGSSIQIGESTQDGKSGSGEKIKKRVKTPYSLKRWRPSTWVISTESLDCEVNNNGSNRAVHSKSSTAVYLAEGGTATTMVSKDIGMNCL

DAPK1 = DAPK1 (Homo sapiens, UniProt P53355)
EPHA4 = EPHA4 (Homo sapiens, UniProt P54764)
TAF1 = TAF1 (Homo sapiens, UniProt P21675)
TTK = biological target: T2, TTK (Homo sapiens, UniProt P33981)
T2 sequence (P33981 1-857): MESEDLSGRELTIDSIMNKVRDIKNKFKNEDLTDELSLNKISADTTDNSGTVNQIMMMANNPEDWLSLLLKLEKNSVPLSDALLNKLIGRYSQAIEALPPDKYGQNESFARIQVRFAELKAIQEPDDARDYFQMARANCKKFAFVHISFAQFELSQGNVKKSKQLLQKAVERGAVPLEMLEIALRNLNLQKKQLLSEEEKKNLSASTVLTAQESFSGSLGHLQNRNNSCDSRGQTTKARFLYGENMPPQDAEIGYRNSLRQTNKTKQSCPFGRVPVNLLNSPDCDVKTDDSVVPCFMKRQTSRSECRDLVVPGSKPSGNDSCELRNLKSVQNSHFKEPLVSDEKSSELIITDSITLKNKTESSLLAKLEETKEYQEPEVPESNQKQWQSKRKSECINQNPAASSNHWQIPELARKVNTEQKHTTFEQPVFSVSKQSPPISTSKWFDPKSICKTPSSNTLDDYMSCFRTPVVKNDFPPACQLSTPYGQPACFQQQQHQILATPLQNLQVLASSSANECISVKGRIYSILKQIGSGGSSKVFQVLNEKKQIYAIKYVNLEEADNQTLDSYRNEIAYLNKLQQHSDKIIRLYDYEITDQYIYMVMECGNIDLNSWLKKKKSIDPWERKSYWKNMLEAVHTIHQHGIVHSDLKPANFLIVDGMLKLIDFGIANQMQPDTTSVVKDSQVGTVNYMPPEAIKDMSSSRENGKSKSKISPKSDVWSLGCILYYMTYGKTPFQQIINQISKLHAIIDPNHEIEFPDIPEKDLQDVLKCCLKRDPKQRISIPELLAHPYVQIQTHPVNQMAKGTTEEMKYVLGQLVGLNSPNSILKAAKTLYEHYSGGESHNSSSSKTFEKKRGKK

Sequence of TAF1 (P21675 whole entry): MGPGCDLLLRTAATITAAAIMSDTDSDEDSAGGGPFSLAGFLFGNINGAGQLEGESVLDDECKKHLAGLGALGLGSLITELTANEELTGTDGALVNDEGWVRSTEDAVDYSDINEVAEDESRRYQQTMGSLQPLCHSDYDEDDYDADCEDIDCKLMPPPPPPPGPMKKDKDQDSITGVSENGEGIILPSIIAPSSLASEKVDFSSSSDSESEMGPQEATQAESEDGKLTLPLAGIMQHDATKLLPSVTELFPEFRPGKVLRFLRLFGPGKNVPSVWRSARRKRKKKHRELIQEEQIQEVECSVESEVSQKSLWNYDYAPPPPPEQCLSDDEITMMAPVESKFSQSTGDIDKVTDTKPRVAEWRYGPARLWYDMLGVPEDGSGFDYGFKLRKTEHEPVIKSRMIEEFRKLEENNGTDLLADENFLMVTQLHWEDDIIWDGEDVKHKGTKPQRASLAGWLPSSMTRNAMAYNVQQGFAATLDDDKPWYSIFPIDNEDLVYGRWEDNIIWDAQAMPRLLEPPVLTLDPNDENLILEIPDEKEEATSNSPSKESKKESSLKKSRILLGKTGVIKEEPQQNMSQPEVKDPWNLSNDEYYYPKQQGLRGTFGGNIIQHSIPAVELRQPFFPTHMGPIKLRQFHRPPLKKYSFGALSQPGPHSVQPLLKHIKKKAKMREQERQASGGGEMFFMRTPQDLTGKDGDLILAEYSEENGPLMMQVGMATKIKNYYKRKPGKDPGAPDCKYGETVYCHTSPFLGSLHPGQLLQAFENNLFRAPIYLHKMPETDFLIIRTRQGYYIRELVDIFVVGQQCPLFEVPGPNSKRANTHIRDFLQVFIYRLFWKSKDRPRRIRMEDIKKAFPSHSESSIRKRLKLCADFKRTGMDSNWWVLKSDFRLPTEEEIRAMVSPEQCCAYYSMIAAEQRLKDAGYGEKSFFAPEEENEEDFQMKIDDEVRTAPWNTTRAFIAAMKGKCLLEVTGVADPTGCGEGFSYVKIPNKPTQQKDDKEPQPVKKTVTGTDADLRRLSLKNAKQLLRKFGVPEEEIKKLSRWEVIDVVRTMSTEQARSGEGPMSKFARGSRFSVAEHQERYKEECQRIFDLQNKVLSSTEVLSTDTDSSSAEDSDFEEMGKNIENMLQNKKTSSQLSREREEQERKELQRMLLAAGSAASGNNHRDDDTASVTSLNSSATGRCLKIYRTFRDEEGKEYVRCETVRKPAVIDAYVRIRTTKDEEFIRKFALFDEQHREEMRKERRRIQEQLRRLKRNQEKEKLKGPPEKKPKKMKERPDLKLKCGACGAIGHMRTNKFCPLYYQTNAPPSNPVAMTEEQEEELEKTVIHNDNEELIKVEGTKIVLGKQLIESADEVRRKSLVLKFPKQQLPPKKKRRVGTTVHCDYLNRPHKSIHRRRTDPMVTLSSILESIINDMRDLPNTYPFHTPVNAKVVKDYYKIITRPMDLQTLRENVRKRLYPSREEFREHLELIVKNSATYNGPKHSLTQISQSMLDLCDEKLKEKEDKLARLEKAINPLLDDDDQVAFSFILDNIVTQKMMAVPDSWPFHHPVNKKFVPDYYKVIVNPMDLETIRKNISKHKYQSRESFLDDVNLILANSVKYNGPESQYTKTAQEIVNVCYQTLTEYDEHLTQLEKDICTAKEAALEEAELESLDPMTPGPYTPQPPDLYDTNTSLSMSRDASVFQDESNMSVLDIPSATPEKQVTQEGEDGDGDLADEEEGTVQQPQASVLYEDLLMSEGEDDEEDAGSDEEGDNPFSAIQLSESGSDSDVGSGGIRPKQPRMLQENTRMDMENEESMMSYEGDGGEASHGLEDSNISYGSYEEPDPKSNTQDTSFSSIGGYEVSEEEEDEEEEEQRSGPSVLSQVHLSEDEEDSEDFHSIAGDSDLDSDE
Sequence of EPHA4 (P54764 whole entry): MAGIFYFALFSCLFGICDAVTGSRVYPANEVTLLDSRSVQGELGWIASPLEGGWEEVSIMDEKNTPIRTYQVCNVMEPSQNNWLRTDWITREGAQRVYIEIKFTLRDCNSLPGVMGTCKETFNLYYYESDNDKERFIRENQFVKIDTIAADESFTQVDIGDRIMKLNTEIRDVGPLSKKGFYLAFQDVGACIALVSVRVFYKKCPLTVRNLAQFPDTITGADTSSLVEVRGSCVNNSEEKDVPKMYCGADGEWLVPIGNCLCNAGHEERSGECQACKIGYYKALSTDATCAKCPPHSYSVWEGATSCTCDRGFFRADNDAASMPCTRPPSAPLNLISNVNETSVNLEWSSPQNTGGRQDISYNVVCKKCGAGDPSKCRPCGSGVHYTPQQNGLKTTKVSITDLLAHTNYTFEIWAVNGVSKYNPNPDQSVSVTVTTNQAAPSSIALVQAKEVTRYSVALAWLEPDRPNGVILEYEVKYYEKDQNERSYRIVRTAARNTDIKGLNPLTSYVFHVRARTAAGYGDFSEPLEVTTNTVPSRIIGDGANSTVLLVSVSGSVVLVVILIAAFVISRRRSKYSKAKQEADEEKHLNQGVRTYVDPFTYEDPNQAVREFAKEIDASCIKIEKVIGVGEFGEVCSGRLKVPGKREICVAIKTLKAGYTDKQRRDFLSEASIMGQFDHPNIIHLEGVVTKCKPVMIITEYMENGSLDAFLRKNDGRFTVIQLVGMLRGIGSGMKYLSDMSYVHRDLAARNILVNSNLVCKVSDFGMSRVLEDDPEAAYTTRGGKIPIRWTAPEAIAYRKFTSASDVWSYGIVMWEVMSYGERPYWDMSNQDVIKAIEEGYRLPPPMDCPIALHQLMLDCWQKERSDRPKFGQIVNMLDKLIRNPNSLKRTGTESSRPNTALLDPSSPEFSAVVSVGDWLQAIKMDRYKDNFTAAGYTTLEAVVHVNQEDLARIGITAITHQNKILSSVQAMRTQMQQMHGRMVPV
Sequence of DAPK1 (P53355 whole entry): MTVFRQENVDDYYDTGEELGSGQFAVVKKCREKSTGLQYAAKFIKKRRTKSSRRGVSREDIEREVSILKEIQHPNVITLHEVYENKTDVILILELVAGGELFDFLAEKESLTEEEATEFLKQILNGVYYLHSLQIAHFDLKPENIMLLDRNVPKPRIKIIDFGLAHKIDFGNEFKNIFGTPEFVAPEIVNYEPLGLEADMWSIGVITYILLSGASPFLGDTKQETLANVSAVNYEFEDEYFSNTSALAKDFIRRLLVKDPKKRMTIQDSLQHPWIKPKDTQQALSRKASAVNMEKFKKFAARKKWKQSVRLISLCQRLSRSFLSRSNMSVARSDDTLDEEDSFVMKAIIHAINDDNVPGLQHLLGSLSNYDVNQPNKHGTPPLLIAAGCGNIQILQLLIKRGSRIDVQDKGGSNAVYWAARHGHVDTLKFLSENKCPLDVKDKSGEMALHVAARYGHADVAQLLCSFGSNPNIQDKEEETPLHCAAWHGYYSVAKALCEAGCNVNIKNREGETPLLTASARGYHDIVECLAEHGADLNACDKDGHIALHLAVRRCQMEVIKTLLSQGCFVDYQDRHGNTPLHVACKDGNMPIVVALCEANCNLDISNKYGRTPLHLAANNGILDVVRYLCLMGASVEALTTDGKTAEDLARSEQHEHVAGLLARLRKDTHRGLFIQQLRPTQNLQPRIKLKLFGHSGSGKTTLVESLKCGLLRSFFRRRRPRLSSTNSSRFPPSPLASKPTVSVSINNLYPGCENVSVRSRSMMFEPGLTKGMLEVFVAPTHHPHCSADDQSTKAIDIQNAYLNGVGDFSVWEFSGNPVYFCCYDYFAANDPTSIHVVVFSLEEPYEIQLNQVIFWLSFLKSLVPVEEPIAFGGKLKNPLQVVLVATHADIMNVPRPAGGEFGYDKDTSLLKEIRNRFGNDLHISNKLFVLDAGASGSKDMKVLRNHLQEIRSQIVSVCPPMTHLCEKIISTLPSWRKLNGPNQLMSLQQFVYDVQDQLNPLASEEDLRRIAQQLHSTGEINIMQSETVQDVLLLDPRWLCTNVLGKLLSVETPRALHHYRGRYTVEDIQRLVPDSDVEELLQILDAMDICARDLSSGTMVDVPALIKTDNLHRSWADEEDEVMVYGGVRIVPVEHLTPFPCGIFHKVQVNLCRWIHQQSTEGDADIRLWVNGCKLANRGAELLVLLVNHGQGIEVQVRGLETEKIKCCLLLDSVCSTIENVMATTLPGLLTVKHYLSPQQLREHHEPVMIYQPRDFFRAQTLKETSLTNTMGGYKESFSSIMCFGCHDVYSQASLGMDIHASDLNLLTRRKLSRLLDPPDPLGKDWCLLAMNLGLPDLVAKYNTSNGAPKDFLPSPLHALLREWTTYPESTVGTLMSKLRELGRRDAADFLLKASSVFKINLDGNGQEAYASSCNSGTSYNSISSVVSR

Structure (SMILES): CC(C)Nc1ccc2cnn(-c3cncc(-c4ccc(C(=O)O)cc4)n3)c2c1 [compound 2, 2]
- ΔTm at 10 µM (BMPR2; read-out: 2): 6 °C
- ΔTm at 10 µM (DAPK1; read-out: 2): 9 °C
- ΔTm at 10 µM (EPHA4; read-out: 2): 2 °C
- ΔTm at 10 µM (TAF1; read-out: 2): 0 °C
- ΔTm at 10 µM (TTK; read-out: 2): 1 °C

Structure (SMILES): COc1ccc(OC(C)C)cc1Nc1cncc(-c2ccc(C(=O)O)cc2)n1 [7c]
- ΔTm at 10 µM (BMPR2; read-out: 7c): 0 °C
- ΔTm at 10 µM (DAPK1; read-out: 7c): 6 °C
- ΔTm at 10 µM (EPHA4; read-out: 7c): 1 °C
- ΔTm at 10 µM (TAF1; read-out: 7c): 1 °C
- ΔTm at 10 µM (TTK; read-out: 7c): 0 °C

Structure (SMILES): CC(C)Oc1ccc2ccn(-c3cncc(-c4ccc(C(=O)O)cc4)n3)c2c1 [6c]
- ΔTm at 10 µM (BMPR2; read-out: 6c): 7 °C
- ΔTm at 10 µM (DAPK1; read-out: 6c): 7 °C
- ΔTm at 10 µM (EPHA4; read-out: 6c): 2 °C
- ΔTm at 10 µM (TAF1; read-out: 6c): 1 °C
- ΔTm at 10 µM (TTK; read-out: 6c): 1 °C
